IC50 data for 23 compounds are collected here from patent publication US20040259926A1, “3-Aryloxy and 3-heteroaryloxy substituted benzo[b]thiophenes as therapeutic agents” (priority 2003, published 2004).

In the assay the target is T1, PI3Kγ (recombinant p101/p110γ protein) (Homo sapiens, UniProt P48736).
T1 construct: HA; made in house; host or cells: Spodoptera frugiperda (Sf9) cells, baculovirus co-infection
T1 sequence (P48736 whole entry, species assumed): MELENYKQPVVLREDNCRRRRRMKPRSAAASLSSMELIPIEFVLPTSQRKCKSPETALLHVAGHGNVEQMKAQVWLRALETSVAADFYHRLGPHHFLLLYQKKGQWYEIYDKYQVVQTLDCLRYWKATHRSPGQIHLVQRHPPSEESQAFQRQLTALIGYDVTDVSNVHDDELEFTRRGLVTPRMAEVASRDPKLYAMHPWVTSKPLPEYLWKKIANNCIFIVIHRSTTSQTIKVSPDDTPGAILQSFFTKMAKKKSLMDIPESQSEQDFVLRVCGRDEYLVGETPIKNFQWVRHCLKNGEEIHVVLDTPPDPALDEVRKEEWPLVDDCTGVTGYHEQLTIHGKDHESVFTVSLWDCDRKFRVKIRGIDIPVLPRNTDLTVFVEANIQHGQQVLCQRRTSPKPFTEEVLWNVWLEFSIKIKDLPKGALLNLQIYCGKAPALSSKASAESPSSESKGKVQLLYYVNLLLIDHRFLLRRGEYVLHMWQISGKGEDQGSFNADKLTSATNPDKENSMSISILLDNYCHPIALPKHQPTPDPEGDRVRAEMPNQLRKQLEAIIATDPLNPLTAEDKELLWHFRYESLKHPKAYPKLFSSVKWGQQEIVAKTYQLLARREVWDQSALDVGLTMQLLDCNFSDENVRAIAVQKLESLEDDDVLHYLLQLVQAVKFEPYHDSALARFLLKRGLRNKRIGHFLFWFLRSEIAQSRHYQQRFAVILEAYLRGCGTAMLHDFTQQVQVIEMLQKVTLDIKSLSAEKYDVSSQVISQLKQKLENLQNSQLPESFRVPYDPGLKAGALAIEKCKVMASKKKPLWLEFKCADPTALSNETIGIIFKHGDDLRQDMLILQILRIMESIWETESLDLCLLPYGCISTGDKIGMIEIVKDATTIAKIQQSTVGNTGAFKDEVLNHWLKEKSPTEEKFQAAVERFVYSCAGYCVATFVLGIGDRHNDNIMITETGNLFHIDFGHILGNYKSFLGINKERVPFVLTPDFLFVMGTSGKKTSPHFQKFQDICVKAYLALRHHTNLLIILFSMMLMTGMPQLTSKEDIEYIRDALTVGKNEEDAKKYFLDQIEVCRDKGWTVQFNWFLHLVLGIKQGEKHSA
T1 sequence (Q8WYR1 whole entry partner, species assumed): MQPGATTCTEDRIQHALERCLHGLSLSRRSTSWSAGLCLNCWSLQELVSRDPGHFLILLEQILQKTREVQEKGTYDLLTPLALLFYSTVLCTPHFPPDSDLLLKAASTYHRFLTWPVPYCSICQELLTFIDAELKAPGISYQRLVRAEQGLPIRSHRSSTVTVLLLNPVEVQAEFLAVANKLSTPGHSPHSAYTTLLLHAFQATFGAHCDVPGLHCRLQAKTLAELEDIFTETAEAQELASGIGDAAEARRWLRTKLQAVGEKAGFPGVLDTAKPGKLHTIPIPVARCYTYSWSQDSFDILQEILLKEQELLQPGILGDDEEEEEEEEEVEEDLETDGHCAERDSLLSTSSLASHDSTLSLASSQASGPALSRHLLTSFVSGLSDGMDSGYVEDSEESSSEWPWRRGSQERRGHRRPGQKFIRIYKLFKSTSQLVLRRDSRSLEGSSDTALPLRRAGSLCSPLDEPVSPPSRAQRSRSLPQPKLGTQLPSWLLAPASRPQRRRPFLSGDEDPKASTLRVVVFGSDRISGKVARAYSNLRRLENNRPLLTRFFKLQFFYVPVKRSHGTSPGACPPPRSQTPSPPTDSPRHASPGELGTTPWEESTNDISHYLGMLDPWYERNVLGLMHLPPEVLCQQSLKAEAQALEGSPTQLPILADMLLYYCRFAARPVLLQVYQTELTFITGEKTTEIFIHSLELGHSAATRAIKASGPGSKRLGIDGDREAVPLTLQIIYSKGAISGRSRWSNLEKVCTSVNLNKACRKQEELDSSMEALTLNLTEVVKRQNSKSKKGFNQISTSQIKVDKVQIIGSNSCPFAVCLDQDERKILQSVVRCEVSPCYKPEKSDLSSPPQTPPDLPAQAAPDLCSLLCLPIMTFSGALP
Description: PI3Kγ In Vitro Kinase Assay. The assay is classed as biochemical. As to conditions: purified recombinant p101/p110γ with G protein β1/γ2 subunits; 20 μM ATP, [γ-32P-ATP]; 25 μM PIP2 lipid micelles; 20 minutes at room temperature. Here is the method: Spodtera frugiperda cells, grown in ESF921 media, were coinfected with baculovirus expressing a glu-tagged […] and baculovirus expressing an HA-tagged p110γ, at a 3:1 ratio of p101 baculovirus to p110γ baculovirus. Sf9 cells were grown to 1×10^7 total cells/mL in 10 L bioreactors and harvested 48-72 hours post infection. Samples of infected cells were then tested for expression of p101/p110γ PI3 kinase by immunoprecipitation and Western Blot analysis methods (see below).
To purify PI3Kγ, 4 volumes of room temperature hypotonic lysis buffer (1 mM MgCl2, 1 mM DTT, 5 mM EGTA, 1 mM Pefabloc, 0.5 μM aprotinin, 5 μM leupeptin, 2 μM pepstatin, 5 μM E64, pH 8) per gram of cell paste, was poured onto frozen cell pellets with stirring, then lysed in a nitrogen “bomb” at 400 psi (599 HC T316, Parr Instrument Co, Moline, Ill.). NaCl was added to 150 mM, and sodium cholate was added to 1% and mixed for another 45 minutes. The lysates were clarified by centrifugation for 25 minutes at 14,000 rpm. The lysates were then loaded over anti-glu-linked Protein-G Sepaharose beads (Covance Research Products, Richmond, Calif.) using 20 mL resin/50 g cell paste. The column was washed with 15 volumes of wash buffer (1 mM DTT, 0.2 mM EGTA, 1 mM Pefabloc, 0.5 μM aprotinin, 5 μM leupeptin, 2 μM pepstatin, 5 μM E64, 150 mM NaCl, 1% sodium cholate, pH 8). PI3Kγ was eluted with 6 column volumes of wash buffer that contain 100 μg/mL of a peptide that competes for binding of the glu tag. The column fractions with the eluted protein (determined by taking OD280 readings) were collected and dialyzed in 0.2 mM EGTA, 1 mM DTT, 1 mM Pefabloc, 5 μM leupeptin, 0.5% sodium cholate, 150 mM NaCl, and 50% glycerol, pH 8. The fractions were stored at −80° C. until further use.
Spodtera frugiperda cells were coinfected with baculovirus expressing a glu-tagged G protein β1 and baculovirus expressing a G protein β2 at a 1:1 ratio of glu-tagged G protein β1 baculovirus to G protein β2 baculovirus. Sf9 cells are grown in 10 L bioreactors and harvested 48-72 hours post infection. Samples of infected cells were tested for G protein β1/β2 expression by Western Blot analysis, as described below. Cell lysates were homogenized and loaded onto a column of glu-tagged beads as in Biological Example 1 and competed off the column with a glu peptide and processed as described in Biological Example 1.
The inhibitory properties of the compounds in Table 1 were assayed in an in vitro PI3K assay. In a 96-well polypropylene plate, each well was spotted with 2 μL of 50 times the desired final concentration of compound in DMSO. Purified recombinant p101/p110γ protein (0.03 μg; ˜2.7 nM) and G protein β1/γ2 subunits (0.09 μg; ˜57.7 nM) for each reaction was combined in the assay buffer (30 mM HEPES, 100 mM NaCl, 1 mM EGTA, and 1 mM DTT). ATP and [γ-^32P-ATP] (0.09 μCi) were added to this mixture so that the final ATP concentration in the reaction was 20 μM. Lipid micelles were formed by sonicating phosphatidylinositol-4,5-diphosphate (PIP2), phosphatidylethanolamine (PE), and Na-cholate in the assay buffer for 10 minutes, adding MgCl2 and incubating on ice for 20 minutes, for final concentrations of 25 μM PIP2, 300 μM PE, 0.02% Na-cholate, and 10 mM MgCl2 in the reaction. The reactions were started by adding equal volumes lipid and enzyme mixture in a total volume of 50 μL, allowed to run for 20 minutes at room temperature, and stopped with 100 μL 75 mM H3PO4. The lipid product was transferred to a glass fiber filter plate and washed with 75 mM H3PO4 several times. The presence of radioactive lipid product (PIP3) was measured by adding Wallac Optiphase mix to each well and counting in a Wallac 1450 Trilux plate reader (PerkinElmer Life Sciences Inc., Boston, Mass. 02118). The IC50 for each compound tested is reported in μM in Table 1: […]
One may read the IC50 as the concentration at which inhibition is half-maximal. Consider `COc1cc2c(Oc3ccc(C(C)c4ccccc4)cc3)c(C(=O)Nc3nn[nH]n3)sc2cc1C` (centres unmarked) [Example B.30, 5-Methoxy-6-methyl-3-[4-(1-phenyl-ethyl)-phenoxy]-benzo[b]thiophene-2-carboxylic acid (2H-tetrazol-5-yl)-amide], for which the IC50 was found to be 29 nM.

Regarding `COc1cc2c(Oc3ccc(N4CCCCC4)cc3)c(C(=O)Nc3nn[nH]n3)sc2cc1C` [Example B.31, 5-Methoxy-6-methyl-3-(4-piperidin-1-yl-phenoxy)-benzo[b]thiophene-2-carboxylic acid (2H-tetrazol-5-yl)-amide], the IC50 was determined as 87 nM.

Consider `COc1cc2c(Oc3ccc(CC4CCCC4)cc3)c(C(=O)Nc3nn[nH]n3)sc2cc1C` [Example B.32, 3-(4-Cyclopentylmethyl-phenoxy)-5-methoxy-6-methyl-benzo[b]thiophene-2-carboxylic acid (2H-tetrazol-5-yl)-amide], for which the IC50 turned out to be 36 nM.

On to `COc1cc2c(Oc3ccc(OC4CCC4)cc3)c(C(=O)Nc3nn[nH]n3)sc2cc1C` [Example B.33, 3-(4-Cyclobutoxy-phenoxy)-5-methoxy-6-methyl-benzo[b]thiophene-2-carboxylic acid (2H-tetrazol-5-yl)-amide], for which the IC50 stood at 7 nM.

For `COc1cc2c(Oc3cccc(OC4CCCC4)c3)c(C(=O)Nc3nn[nH]n3)sc2cc1C` [Example B.34, 3-(3-Cyclopentyloxy-phenoxy)-5-methoxy-6-methyl-benzo[b]thiophene-2-carboxylic acid (2H-tetrazol-5-yl)-amide], the IC50 is 110 nM.

For the compound `COc1cc2c(Oc3cncnc3N3CCCCC3)c(C(=O)Nc3nn[nH]n3)sc2cc1C` [Example B.37, 5-Methoxy-6-methyl-3-(4-piperidin-1-yl-pyrimidin-5-yloxy)-benzo[b]thiophene-2-carboxylic acid (2H-tetrazol-5-yl)-amide], the IC50 is 89 nM.

On to `COc1cc2c(Oc3ccc(Br)cc3)c(C(=O)Nc3nn[nH]n3)sc2cc1C` [Example B.38, 3-(4-Bromo-phenoxy)-5-methoxy-6-methyl-benzo[b]thiophene-2-carboxylic acid (2H-tetrazol-5-yl)-amide], for which the IC50 is 16 nM.

Regarding `COc1cc2c(Oc3ccc(F)cc3)c(C(=O)Nc3nn[nH]n3)sc2cc1C` [Example B.39, 3-(4-Fluoro-phenoxy)-5-methoxy-6-methyl-benzo[b]thiophene-2-carboxylic acid (2H-tetrazol-5-yl)-amide], the IC50 was found to be 18 nM.

Consider `COc1cc2c(Oc3ccc(Cl)cc3F)c(C(=O)Nc3nn[nH]n3)sc2cc1C` [Example B.40, 3-(4-Chloro-2-fluoro-phenoxy)-5-methoxy-6-methyl-benzo[b]thiophene-2-carboxylic acid (2H-tetrazol-5-yl)-amide], for which the IC50 came to 22 nM.

As to `COc1cc2c(Oc3ccc(Cl)c(F)c3)c(C(=O)Nc3nn[nH]n3)sc2cc1C` [Example B.41, 3-(4-Chloro-3-fluoro-phenoxy)-5-methoxy-6-methyl-benzo[b]thiophene-2-carboxylic acid (2H-tetrazol-5-yl)-amide], the IC50 was determined as 135 nM.

Regarding `COc1cc2c(Oc3cccc(C(F)(F)F)c3)c(C(=O)Nc3nn[nH]n3)sc2cc1C` [Example B.42, 5-Methoxy-6-methyl-3-(3-trifluoromethyl-phenoxy)-benzo[b]thiophene-2-carboxylic acid (2H-tetrazol-5-yl)-amide], the IC50 was determined as 180 nM.

As for `COc1cc2c(Oc3ccc([N+](=O)[O-])cc3)c(C(=O)Nc3nn[nH]n3)sc2cc1C` [Example B.43, 5-Methoxy-6-methyl-3-(4-nitro-phenoxy)-benzo[b]thiophene-2-carboxylic acid (2H-tetrazol-5-yl)-amide], the IC50 stood at 56 nM.

As to `COc1cc2c(Oc3ccc(Cl)c(Cl)c3)c(C(=O)Nc3nn[nH]n3)sc2cc1C` [Example B.44, 3-(3,4-Dichloro-phenoxy)-5-methoxy-6-methyl-benzo[b]thiophene-2-carboxylic acid (2H-tetrazol-5-yl)-amide], the IC50 is 165 nM.

Turning to `COc1cc2c(Oc3ccc(OC(F)(F)F)cc3)c(C(=O)Nc3nn[nH]n3)sc2cc1C` [Example B.45, 5-Methoxy-6-methyl-3-(4-trifluoromethoxy-phenoxy)-benzo[b]thiophene-2-carboxylic acid (2H-tetrazol-5-yl)-amide], the IC50 was found to be 17 nM.

As to `COc1cc2c(Oc3cccnc3)c(C(=O)Nc3nn[nH]n3)sc2cc1C` [Example B.46, 5-Methoxy-6-methyl-3-(pyridin-3-yloxy)-benzo[b]thiophene-2-carboxylic acid (2H-tetrazol-5-yl)-amide], the IC50 worked out at 120 nM.

For `COc1cc2c(Oc3ccc(S(C)(=O)=O)cc3)c(C(=O)Nc3nn[nH]n3)sc2cc1C` [Example B.47, 3-(4-Methanesulfonyl-phenoxy)-5-methoxy-6-methyl-benzo[b]thiophene-2-carboxylic acid (2H-tetrazol-5-yl)-amide], the IC50 was 58 nM.

Turning to `COc1cc2c(Oc3ccc(C4CCC(C)C4)cc3)c(C(=O)Nc3nn[nH]n3)sc2cc1C` (centres unmarked) [Example B.49, 5-Methoxy-6-methyl-3-[4-(3-methyl-cyclopentyl)-phenoxy]-benzo[b]thiophene-2-carboxylic acid (2H-tetrazol-5-yl)-amide], the IC50 was 71 nM.

`COc1cc2c(Oc3ccc(OC4CCC(C)C4)cc3)c(C(=O)Nc3nn[nH]n3)sc2cc1C` (centres unmarked) [Example B.50, 5-Methoxy-6-methyl-3-[4-(3-methyl-cyclopentyloxy)-phenoxy]-benzo[b]thiophene-2-carboxylic acid (2H-tetrazol-5-yl)-amide]: the IC50 came to 51 nM.

Regarding `COc1cc2c(Oc3ccc(Cl)cc3)c(C(=O)Nc3nn[nH]n3)sc2cc1C` [Example B.51, 3-(4-Chloro-phenoxy)-5-Methoxy-6-methyl-benzo[b]thiophene-2-carboxylic acid (2H-tetrazol-5-yl)-amide], the IC50 amounted to 61 nM.

Turning to `CCCCC1CCCC(c2ccc(Oc3c(C(=O)Nc4nn[nH]n4)sc4cc(C)c(OC)cc34)cc2)C1` (centres unmarked) [Example B.52, 3-[4-(3-Butyl-cyclohexyl)-phenoxy]-5-methoxy-6-methyl-benzo[b]thiophene-2-carboxylic acid (2H-tetrazol-5-yl)-amide], the IC50 turned out to be 1310 nM.

On to `COc1cc2c(Oc3ccc(C4CCC(C)(C)CC4)cc3)c(C(=O)Nc3nn[nH]n3)sc2cc1C` [Example B.55, 3-[4-(4,4-Dimethyl-cyclohexyl)-phenoxy]-5-methoxy-6-methyl-benzo[b]thiophene-2-carboxylic acid (2H-tetrazol-5yl)-amide], for which the IC50 was found to be 102 nM.

Turning to `COc1cc2c(Oc3ccc(C4CCCCCC4)cc3)c(C(=O)Nc3nn[nH]n3)sc2cc1C` [Example B.57, 3-(4-cycloheptyl-phenoxy)-5-methoxy-6-methyl-benzo[b]thiophene-2-carboxylic acid (2H-tetrazol-5-yl)amide], the IC50 was 40 nM.

As for `COc1cc2c(Oc3ccc(C4CCCC4)cc3)c(C(=O)Nc3nn[nH]n3)sc2cc1C` [Example B.58, 3-(4-cyclopentyl-phenoxy)-5-methoxy-6-methyl-benzo[b]thiophene-2-carboxylic acid (2H-tetrazol-5-yl)amide], the IC50 came to 35 nM.
